Test results published in patent US8697739B2, “Bicyclic acetyl-CoA carboxylase inhibitors and uses thereof” (Novartis AG, priority 2010, dated 2014).
pIC50: −log10 of the molar value.

Each molecule was assayed against T1, human acetyl-CoA carboxylase 2 (ACC2) (Homo sapiens, UniProt O00763) (assay: Acetyl-CoA carboxylase enzyme assay (malonyl-CoA formation by LC/MS/MS)). Details: recombinant human ACC2 (aa 144-2458); read-out: IC50 ACC2.
T1 construct: The cDNA encoding amino acids 144 to 2458 of human acetyl-CoA carboxylase 2; made in house; host or cells: Sf9 insect cells (baculovirus, pFastBac1)
T1 sequence (O00763 144-2458): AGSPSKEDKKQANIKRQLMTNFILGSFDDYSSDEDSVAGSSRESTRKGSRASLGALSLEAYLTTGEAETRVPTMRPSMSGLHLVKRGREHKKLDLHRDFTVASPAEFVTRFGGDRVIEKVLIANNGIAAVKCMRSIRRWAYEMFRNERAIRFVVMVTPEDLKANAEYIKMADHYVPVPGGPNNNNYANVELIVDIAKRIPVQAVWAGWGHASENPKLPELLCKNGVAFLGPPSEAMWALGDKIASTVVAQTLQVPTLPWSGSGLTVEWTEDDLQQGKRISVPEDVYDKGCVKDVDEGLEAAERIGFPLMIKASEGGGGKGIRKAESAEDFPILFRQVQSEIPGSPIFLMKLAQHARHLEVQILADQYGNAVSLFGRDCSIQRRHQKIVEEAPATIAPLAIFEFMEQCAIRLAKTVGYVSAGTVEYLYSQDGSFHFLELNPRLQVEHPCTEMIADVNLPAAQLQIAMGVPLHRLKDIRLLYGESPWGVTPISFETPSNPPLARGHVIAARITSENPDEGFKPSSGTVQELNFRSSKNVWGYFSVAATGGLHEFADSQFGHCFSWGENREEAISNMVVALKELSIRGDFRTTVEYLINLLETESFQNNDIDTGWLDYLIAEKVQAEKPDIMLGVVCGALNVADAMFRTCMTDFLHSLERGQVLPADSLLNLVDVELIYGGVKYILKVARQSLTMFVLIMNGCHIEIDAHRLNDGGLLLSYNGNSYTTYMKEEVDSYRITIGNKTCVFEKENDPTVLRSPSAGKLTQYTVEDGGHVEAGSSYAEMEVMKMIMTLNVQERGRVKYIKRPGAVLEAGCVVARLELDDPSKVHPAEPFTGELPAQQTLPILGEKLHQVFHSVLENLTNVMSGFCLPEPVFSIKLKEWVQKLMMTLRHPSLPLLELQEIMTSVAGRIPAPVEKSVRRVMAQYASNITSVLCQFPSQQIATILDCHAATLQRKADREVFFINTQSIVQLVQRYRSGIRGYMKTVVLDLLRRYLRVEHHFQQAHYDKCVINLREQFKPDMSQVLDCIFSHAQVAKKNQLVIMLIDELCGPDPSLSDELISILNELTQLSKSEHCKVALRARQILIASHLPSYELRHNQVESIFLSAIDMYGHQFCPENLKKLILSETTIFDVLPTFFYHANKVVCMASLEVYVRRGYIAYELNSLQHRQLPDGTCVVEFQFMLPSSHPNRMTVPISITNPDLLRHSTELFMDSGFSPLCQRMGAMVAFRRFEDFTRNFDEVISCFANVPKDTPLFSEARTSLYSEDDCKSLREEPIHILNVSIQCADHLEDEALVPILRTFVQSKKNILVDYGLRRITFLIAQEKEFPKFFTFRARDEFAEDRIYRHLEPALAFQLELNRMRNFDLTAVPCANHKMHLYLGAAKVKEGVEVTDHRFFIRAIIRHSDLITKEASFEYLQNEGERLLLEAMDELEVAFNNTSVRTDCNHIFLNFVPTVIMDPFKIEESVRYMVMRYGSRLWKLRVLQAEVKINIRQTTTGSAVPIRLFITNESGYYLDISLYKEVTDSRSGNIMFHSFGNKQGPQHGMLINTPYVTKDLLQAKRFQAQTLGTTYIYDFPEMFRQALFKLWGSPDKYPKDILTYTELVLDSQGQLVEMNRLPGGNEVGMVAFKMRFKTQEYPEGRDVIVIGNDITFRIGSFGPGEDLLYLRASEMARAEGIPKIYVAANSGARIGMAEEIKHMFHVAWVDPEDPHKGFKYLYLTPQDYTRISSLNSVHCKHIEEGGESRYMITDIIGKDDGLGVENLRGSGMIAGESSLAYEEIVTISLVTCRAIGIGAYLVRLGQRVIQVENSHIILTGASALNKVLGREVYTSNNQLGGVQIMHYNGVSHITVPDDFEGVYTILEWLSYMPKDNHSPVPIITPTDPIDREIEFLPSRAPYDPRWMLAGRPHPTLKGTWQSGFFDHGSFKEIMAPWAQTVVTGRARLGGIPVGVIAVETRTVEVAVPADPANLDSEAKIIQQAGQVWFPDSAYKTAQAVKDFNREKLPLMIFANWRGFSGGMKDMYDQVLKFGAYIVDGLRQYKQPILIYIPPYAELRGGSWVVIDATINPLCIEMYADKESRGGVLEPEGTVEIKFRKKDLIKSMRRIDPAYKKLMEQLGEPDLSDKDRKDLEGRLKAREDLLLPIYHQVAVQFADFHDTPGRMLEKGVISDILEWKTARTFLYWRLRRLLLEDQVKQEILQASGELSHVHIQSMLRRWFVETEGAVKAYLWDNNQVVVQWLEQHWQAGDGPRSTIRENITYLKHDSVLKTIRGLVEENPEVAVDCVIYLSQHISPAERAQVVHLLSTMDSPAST
Format: biochemical
Procedure, shortened: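 Malonyl-CoA formation was read by LC/MS/MS MRM against a [13C3]-malonyl-CoA internal standard, after acetic acid quench. The enzyme was baculovirus/Sf9-expressed human ACC2 residues 144–2458, given 15 minutes room-temperature compound preincubation in HEPES pH 7.5 buffer with MgCl2, citrate and DTT. Substrate solution held 50 μM acetyl-CoA, 120 μM ATP and 2 mM KHCO3.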

| Structure (SMILES) | pIC50 |
| --- | --- |
| C[C@H]1CCCCN1C(=O)[C@H]1CC[C@H](NS(=O)(=O)c2ccc3c(C#N)c(-c4ccc(CCC(=O)O)cc4)n(C)c3c2)CC1 [Example 415, 3-(4-(3-cyano-1-methyl-6-(N-((1S,4r)-4-((S)-2-methylpiperidine-1-carbonyl)cyclohexyl)sulfamoyl)-1H-indol-2-yl)phenyl)propanoic acid] | > 8.00 |
| CC(C)OC(=O)C1(C)CCC(NS(=O)(=O)c2ccc3c(ccn3C)c2)CC1 (centres unmarked) [Example 388, isopropyl 1-methyl-4-(1-methyl-1H-indole-5-sulfonamido)cyclohexanecarboxylate] | 6.96 |
| COc1cc(Nc2nc3cc(S(=O)(=O)Nc4ccc(C(=O)OC(C)C)cc4)ccc3[nH]2)cc(OC)c1OC [Example 543, isopropyl 4-(2-(3,4,5-trimethoxyphenylamino)-1H-benzo[d]imidazole-5-sulfonamido)benzoate] | 6.55 |
| O=C(Nc1cccc(C(F)(F)F)c1)[C@H]1CC[C@H](NS(=O)(=O)c2ccc3[nH]c(-c4ccccc4)nc3c2)CC1 [Example 648, (1r,4r)-4-(2-phenyl-1H-benzo[d]imidazole-5-sulfonamido)-N-(3-(trifluoromethyl)phenyl)cyclohexanecarboxamide] | 5.74 |
| Cn1c(-c2ccc(CO)cc2)cc2ccc(S(=O)(=O)N[C@H]3CC[C@H](C(=O)N4CCN[C@@H](C(F)(F)F)C4)CC3)cc21 [Example 338, 2-(4-(hydroxymethyl)phenyl)-1-methyl-N-((1R,4r)-4-((R)-3-(trifluoromethyl)piperazine-1-carbonyl)cyclohexyl)-1H-indole-6-sulfonamide] | 7.82 |
| C[C@@H]1CN(C(=O)[C@H]2CC[C@H](NS(=O)(=O)c3ccc4c(C#N)c(C5CC5)n(C)c4c3)CC2)C[C@H](C)O1 [Example 417, 3-cyano-2-cyclopropyl-N-((1R,4r)-4-((2S,6R)-2,6-dimethylmorpholine-4-carbonyl)cyclohexyl)-1-methyl-1H-indole-6-sulfonamide] | 7.10 |
| CN1CCN(C)c2ncc(S(=O)(=O)N[C@H]3CC[C@H](C(=O)N4CCNCC4c4ccccc4)CC3)cc21 (some centres unmarked) [Example 183, 1,4-dimethyl-N-((1r,4r)-4-(2-phenylpiperazine-1-carbonyl)cyclohexyl)-1,2,3,4-tetrahydropyrido[3,2-b]pyrazine-7-sulfonamide] | 6.87 |
| CC(C)OC(=O)c1ccc(NS(=O)(=O)c2ccc3[nH]c(Nc4ccc([N+](=O)[O-])cc4)nc3c2)cc1 [Example 550, isopropyl 4-(2-(4-nitrophenylamino)-1H-benzo[d]imidazole-5-sulfonamido)benzoate] | 6.62 |
| C[C@@H](NC(=O)[C@H]1CC[C@H](NS(=O)(=O)c2ccc3nc(OC4COC4)ccc3c2)CC1)c1ccccn1 [Example 83, (1r,4R)-4-(2-(oxetan-3-yloxy)quinoline-6-sulfonamido)-N-((R)-1-(pyridin-2-yl)ethyl)cyclohexanecarboxamide] | 6.07 |
| COC(=O)c1ccc(-c2nc3cc(S(=O)(=O)N[C@H]4CC[C@H](c5nnc(C(C)(C)C)o5)CC4)ccc3[nH]2)cc1 [Example 652, methyl 4-(5-(N-((1r,4r)-4-(5-tert-butyl-1,3,4-oxadiazol-2-yl)cyclohexyl)sulfamoyl)-1H-benzo[d]imidazol-2-yl)benzoate] | 6.06 |
| Cn1c(-c2ccccc2)c(Cl)c2ccc(S(=O)(=O)N[C@H]3CC[C@H](C(=O)N4CCCC(C(C)(C)O)C4)CC3)cc21 (some centres unmarked) [Example 384, 3-chloro-N-((1r,4r)-4-(3-(2-hydroxypropan-2-yl)piperidine-1-carbonyl)cyclohexyl)-1-methyl-2-phenyl-1H-indole-6-sulfonamide] | > 8.00 |
| CCOc1ccc2cc(S(=O)(=O)N[C@H]3CC[C@H](C(=O)N[C@H](COP(=O)(OC(C)(C)C)OC(C)(C)C)c4ccccc4)CC3)ccc2n1 [Example 268, di-tert-butyl (S)-2-((1r,4S)-4-(2-ethoxyquinoline-6-sulfonamido)cyclohexanecarboxamido)-2-phenylethyl phosphate] | 6.36 |
| Cn1c(-c2ccccc2)cc2cc(S(=O)(=O)N[C@H]3CC[C@H](C(=O)N4CCN[C@@H](C(F)(F)F)C4)CC3)ccc21 [Example 87, 1-methyl-2-phenyl-N-((1R,4r)-4-((R)-3-(trifluoromethyl)piperazine-1-carbonyl)cyclohexyl)-1H-indole-5-sulfonamide] | 7.00 |
| CC(C)OC(=O)c1ccc(NS(=O)(=O)c2ccc3nc(-c4cncs4)[nH]c3c2)cc1 [Example 510, isopropyl 4-(2-(thiazol-5-yl)-1H-benzo[d]imidazole-6-sulfonamido)benzoate] | 5.74 |
| CC(=O)Nc1ccc(-c2nc3ccc(S(=O)(=O)Nc4ccc(C(=O)OC(C)C)cc4)cc3[nH]2)cc1 [Example 498, isopropyl 4-(2-(4-acetamidophenyl)-1H-benzo[d]imidazole-6-sulfonamido)benzoate] | 6.31 |
| COCc1ccc(-c2cc3ccc(S(=O)(=O)N[C@H]4CC[C@H](C(=O)N5CCOC[C@@H]5C5CC5)CC4)cc3n2C)cc1 [Example 456, N-((1S,4r)-4-((S)-3-cyclopropylmorpholine-4-carbonyl)cyclohexyl)-2-(4-(methoxymethyl)phenyl)-1-methyl-1H-indole-6-sulfonamide] | > 8.00 |
| Cn1c(-c2ccccc2)cc2cc(S(=O)(=O)N[C@H]3CC[C@H](C(=O)N4CCN[C@H](C(F)(F)F)C4)CC3)ccc21 [Example 86, 1-methyl-2-phenyl-N-((1S,4r)-4-((S)-3-(trifluoromethyl)piperazine-1-carbonyl)cyclohexyl)-1H-indole-5-sulfonamide] | 7.12 |
| C[C@@H](NC(=O)[C@H]1CC[C@H](NS(=O)(=O)c2ccc3[nH]c(-c4cccnc4)cc3c2)CC1)c1ccccc1 [Example 284, (1r,4R)-N-((R)-1-phenylethyl)-4-(2-(pyridin-3-yl)-1H-indole-5-sulfonamido)cyclohexanecarboxamide] | 7.85 |

Second part, the molecule after the results:

| pIC50 | Structure (SMILES) |
| --- | --- |
| 6.61 | Cc1nc2cc(S(=O)(=O)N[C@H]3CC[C@H](C(=O)N[C@H](C)c4ccc(F)cc4)CC3)ccc2n1C [Example 5, (1r,4R)-4-(1,2-dimethyl-1H-benzo[d]imidazole-5-sulfonamido)-N—((R)-1-(4-fluorophenyl)ethyl)cyclohexanecarboxamide] |
| 7.22 | CC(C)COC(=O)N1CCNc2ncc(S(=O)(=O)N[C@H]3CC[C@H](C(=O)N[C@H](C)c4ccc(F)cc4)CC3)cc21 [Example 200, isobutyl 7-(N-((1R,4r)-4-((R)-1-(4-fluorophenyl)ethylcarbamoyl)cyclohexyl)sulfamoyl)-3,4-dihydropyrido[3,2-b]pyrazine-1(2H)-carboxylate] |
| 7.60 | C[C@@H](NC(=O)[C@H]1CC[C@H](NS(=O)(=O)c2ccc3cc(CCCO)[nH]c3c2)CC1)c1ccc(F)cc1 [Example 319, (1r,4R)-N-((R)-1-(4-fluorophenyl)ethyl)-4-(2-(3-hydroxypropyl)-1H-indole-6-sulfonamido)cyclohexanecarboxamide] |
| 7.70 | C[C@@H](NC(=O)[C@H]1CC[C@H](NS(=O)(=O)c2ccc3nc(-c4cccnc4)ccc3c2)CC1)c1ccc(F)cc1 [Example 218, (1r,4R)-N-((R)-1-(4-fluorophenyl)ethyl)-4-(2-(pyridin-3-yl)quinoline-6-sulfonamido)cyclohexanecarboxamide] |
| 7.22 | C[C@@H](NC(=O)[C@H]1CC[C@H](NS(=O)(=O)c2ccc3cc(CCO)[nH]c3c2)CC1)c1ccc(F)cc1 [Example 305, (1r,4R)-N-((R)-1-(4-fluorophenyl)ethyl)-4-(2-(2-hydroxyethyl)-1H-indole-6-sulfonamido)cyclohexanecarboxamide] |
| 6.17 | Cc1cnc2c(S(=O)(=O)N[C@H]3CC[C@H](C(=O)N[C@H](C)c4ccc(F)cc4)CC3)cccc2c1 [Example 165, (1r,4R)-N-((R)-1-(4-fluorophenyl)ethyl)-4-(3-methylquinoline-8-sulfonamido)cyclohexanecarboxamide] |
| 6.76 | [2H]C([2H])([2H])N1C(=O)COc2ccc(S(=O)(=O)N[C@H]3CC[C@H](C(=O)N[C@H](C)c4ccc(F)cc4)CC3)cc21 [Example 155, (1r,4R)-N-((R)-1-(4-fluorophenyl)ethyl)-4-(3-oxo-4-(trideuteriomethyl)-3,4-dihydro-2H-benzo[b][1,4]oxazine-6-sulfonamido)cyclohexanecarboxamide] |
| 6.76 | C[C@@H](NC(=O)[C@H]1CC[C@H](NS(=O)(=O)c2cnc3c(c2)N(C)CCO3)CC1)c1ccc(F)cc1 [Example 131, (1r,4R)-N-((R)-1-(4-fluorophenyl)ethyl)-4-(1-methyl-2,3-dihydro-1H-pyrido[2,3-b][1,4]oxazine-7-sulfonamido)cyclohexanecarboxamide] |
| 7.02 | Cc1ccccc1-c1nc2cc(S(=O)(=O)N[C@H]3CC[C@H](C(=O)N[C@H](C)c4ccc(F)cc4)CC3)cnc2s1 [Example 75, (1r,4R)-N-((R)-1-(4-fluorophenyl)ethyl)-4-(2-o-tolylthiazolo[5,4-b]pyridine-6-sulfonamido)cyclohexanecarboxamide] |
| 6.36 | C[C@@H](NC(=O)[C@H]1CC[C@H](NS(=O)(=O)c2cccc3ccccc23)CC1)c1ccc(F)cc1 [Example 678, (1r,4R)-N-((R)-1-(4-fluorophenyl)ethyl)-4-(naphthalene-1-sulfonamido)cyclohexanecarboxamide] |
| 6.71 | CCOc1ccc2cc(S(=O)(=O)NC3CCC(C(=O)NC(c4ccccc4)C(C)OC(=O)C(N)C(C)C)CC3)ccc2n1 [Example 271, (S)-((1S,2S)-1-((1r,4S)-1-((1r,4S)-4-(2-ethoxyquinoline-6-sulfonamido)cyclohexanecarboxamido)-1-phenylpropan-2-yl) 2-amino-3-methylbutanoate] |
